# Reference: patent publication US20150258043A1, “USE OF SPHINGOID LONG CHAIN BASES AND THEIR ANALOGS IN TREATING AND PREVENTING BACTERIAL INFECTIONS” (YEDA RESEARCH AND DEVELOPMENT CO. LTD., priority 2012, published 2015)
# Tested on: sphingosine and ceramide on tracheal and bronchial epithelial cells
# Experiment: Sphingosine and ceramide levels in airway epithelial cells after inhalation (immunostaining, in situ kinase assays)
# Design: species or system mouse
# Details: CF (and CerS2 null) mice, in vivo inhalation
# Method: Sphingosine levels were determined in the trachea and lung of wildtype (wt), Cftr- and CerS2 null mice (Teichgräber, V. et al. Nat Med 2008, 14, 382-391; Pewzner-Jung et al. J Biol Chem. 2010 Apr. 2; 285(14):10902-10) and human nasal tissues by (i) confocal microscopy analysis of paraffin sections stained with Cy3-coupled anti-sphingosine antibodies and (ii) by newly developed biochemical assays that employed sphingosine kinase assays to determine sphingosine in freshly isolated tracheal epithelial cells and on the surface of tracheal epithelial cells in situ. In the latter experiments the intact trachea was carefully opened and incubated with sphingosine kinase in the presence of [^32]PγATP. Lipids were extracted and the concentration of sphingosine-1-[^32]P was determined. In addition, surface sphingosine was immunoprecipitated from the surface of tracheal epithelial cells by binding of anti-sphingosine antibodies to the intact inner surface of the trachea, followed by washing, lysis, immobilization of immune complexes, extraction of bound sphingosine and quantification of sphingosine by kinase assays. […]
# Mice were sacrificed and the trachea immediately removed. […] The TLC plates were exposed to radiography films, the spots were removed from the plates, and the incorporation of [^32P] into ceramide was measured by liquid scintillation counting. […]
smiles,measurement,value
"CCCCCCCCCCCCC/C=C/[C@@H](O)[C@@H](N)CO (stereo in doubt) [D-erythro-Sphingosine, (2S,3R)-2-aminooctadec-4-ene-1,3-diol]",sphingosine levels on airway epithelial cells after inhalation,restored sphingosine levels
